Among the data in ChEMBL document CHEMBL1142959, “Semisynthetic approaches to laspartomycin analogues” (2007) are MIC values, retold here.

Assay type in all cases: functional
One assay relates to Enterococcus faecium. In words: Antimicrobial activity against vancomycin/multidrug-resistant Enterococcus faecium ATCC 51559 by broth microdilution method.
The subject of assay [1] is Staphylococcus aureus. Briefly: Antimicrobial activity against vancomycin-intermediate Staphylococcus aureus CDC HIP 5836 by broth microdilution method.
Assay [2] concerns Staphylococcus aureus. In words: Antimicrobial activity against methicillin-sensitive Staphylococcus aureus Smith ATCC 19636 by tube dilution method.
Another assay concerns Enterococcus faecalis. In words: Antimicrobial activity against vancomycin-sensitive Enterococcus faecalis ATCC 29212 by broth microdilution method.
For assay [3], the system named is Staphylococcus epidermidis. In words: Antimicrobial activity against methicillin-resistant Staphylococcus epidermidis ATCC 51625 by broth microdilution method.
In assay [4] the test system is Staphylococcus aureus. Briefly: Antimicrobial activity against methicillin-resistant Staphylococcus aureus ATCC 43300 by broth microdilution method.
Assay [5] concerns Staphylococcus aureus. Briefly: Antimicrobial activity against methicillin-sensitive Staphylococcus aureus Smith ATCC 19636 by broth microdilution method.

Each structure is given as a SMILES string. Converted amounts (≈) assume the structure as drawn.

On to `CCCCCCCCCCCCCCC(=O)N[C@@H](CC(=O)O)C(=O)N[C@H]1CNC(=O)[C@@H]2CCCN2C(=O)[C@H]([C@H](C)CC)NC(=O)[C@H]([C@@H](C)O)NC(=O)CNC(=O)[C@H](CC(=O)O)NC(=O)CNC(=O)C(CC(=O)O)NC(=O)CNC(=O)[C@@H]2CCCCN2C1=O` (single isomer, unassigned), for which the minimum inhibitory concentration (MIC) in the assay with Enterococcus faecium came out at 4 µg/mL (≈ 3.2 µM); in the assay with Staphylococcus aureus [1] it was 16 µg/mL (≈ 12.8 µM); with Staphylococcus aureus [2] it was 2 µg/mL (≈ 1.6 µM); in the assay on Enterococcus faecalis, 4 µg/mL (≈ 3.2 µM); in assay [3], 8 µg/mL (≈ 6.4 µM); against Staphylococcus aureus [4] it was 4 µg/mL (≈ 3.2 µM). The MIC with Staphylococcus aureus [5] stood at 4 µg/mL (≈ 3.2 µM).
On to `CCCCCCCCCCCCCCC(=O)N[C@@H](Cc1ccccc1)C(=O)N[C@@H](CC(=O)O)C(=O)N[C@H]1CNC(=O)[C@@H]2CCCN2C(=O)[C@H]([C@H](C)CC)NC(=O)[C@H]([C@@H](C)O)NC(=O)CNC(=O)[C@H](CC(=O)O)NC(=O)CNC(=O)C(CC(=O)O)NC(=O)CNC(=O)[C@@H]2CCCCN2C1=O` (single isomer, unassigned), for which the minimal inhibitory concentration (MIC) turned out to be 8 µg/mL (≈ 5.73 µM) against Enterococcus faecium; 32 µg/mL (≈ 22.9 µM) in the assay with Staphylococcus aureus [1]; 4 µg/mL (≈ 2.86 µM) with Staphylococcus aureus [2] (Staphylococcus aureus, Smith, read-out: MIC); 4 µg/mL (≈ 2.86 µM) with Enterococcus faecalis; 4 µg/mL (≈ 2.86 µM) in assay [3]; 4 µg/mL (≈ 2.86 µM) in the assay with Staphylococcus aureus [4]. In the assay on Staphylococcus aureus [5], this compound came in with a minimum inhibitory concentration (MIC) of 4 µg/mL (≈ 2.86 µM).
